The values below come from patent US12583861B2, “Derivatives of imidazo[4,5-d]pyridazine, their preparation and their therapeutic application” (SANOFI, priority 2021, dated 2026).

Like-named read-outs stand apart in the source and are kept apart here.

Common to all, as to type: cell-based
In test [1] the test system is IL29. Description: IL29 cytokine activation in human PBMC (MSD assay). The procedure: (§1) The other below tests involving measuring the in vitro activity of some compounds of the disclosure on cytokines IFN-α2a, IL-6, IL29 and TNF-α were carried out using human PBMC (PBMCs).
(§2) The activity described below, with respect to TLR7, TLR8, IFN-α2a, IL-6, IL29 and TNF-α, is given by the half maximal effective concentration (EC50), which corresponds to the concentration required to obtain a 50% of the activation. The lower the EC50, the less the concentration of the compound is required to produce 50% of maximum activation and the higher the potency.
(§3) In Vitro Assay to Determine IFN-α2a, IL-6, IL29 and TNF-α Cytokine Activation:
(§4) Peripheral blood mononuclear cells were isolated by Ficoll density gradient centrifugation from peripheral blood samples obtained from healthy donors (EFS). Isolated PBMCs are washed twice with PBS and resuspended in RPMI-1640 medium supplement with 10% fetal bovine serum (FBS) at 5.10^5 cells/well in a 96-well plate. The cells were then incubated with the compounds to test at various doses (20 μM to 4.8.10-6 μM final) for 24 h at 37° C., 5% CO2. After 24 h treatment, the plates are centrifuged and the supernatant were collected and assayed for cytokines IFN-α2a, IL-6, IL29 and TNF-α using the Meso Scale Discovery (MSD) assay platform according to the manufacturer's instructions. Briefly, 25 μL of cell culture supernatants were incubated for 1 h at Room Temperature (RT) in custom Multi-Spot 96-well plates prior coated with capture antibodies. After washing, SULFO-TAG® labeled detection antibodies were added to each of the wells and incubated for 1 h RT before adding a read buffer.

Test [2] deals with IL-6. Nature of the test: IL-6 cytokine activation in human PBMC (MSD assay). The settings on record: read-out: IL6 EC50. How it is done:
as §1, §2, §3, §4

Test [3] concerns the target T1, human TLR7 (Homo sapiens, UniProt Q9NYK1).
T1 construct: host or cells: HEK293 (HEK-Blue hTLR7)
T1 sequence (Q9NYK1 27-1049): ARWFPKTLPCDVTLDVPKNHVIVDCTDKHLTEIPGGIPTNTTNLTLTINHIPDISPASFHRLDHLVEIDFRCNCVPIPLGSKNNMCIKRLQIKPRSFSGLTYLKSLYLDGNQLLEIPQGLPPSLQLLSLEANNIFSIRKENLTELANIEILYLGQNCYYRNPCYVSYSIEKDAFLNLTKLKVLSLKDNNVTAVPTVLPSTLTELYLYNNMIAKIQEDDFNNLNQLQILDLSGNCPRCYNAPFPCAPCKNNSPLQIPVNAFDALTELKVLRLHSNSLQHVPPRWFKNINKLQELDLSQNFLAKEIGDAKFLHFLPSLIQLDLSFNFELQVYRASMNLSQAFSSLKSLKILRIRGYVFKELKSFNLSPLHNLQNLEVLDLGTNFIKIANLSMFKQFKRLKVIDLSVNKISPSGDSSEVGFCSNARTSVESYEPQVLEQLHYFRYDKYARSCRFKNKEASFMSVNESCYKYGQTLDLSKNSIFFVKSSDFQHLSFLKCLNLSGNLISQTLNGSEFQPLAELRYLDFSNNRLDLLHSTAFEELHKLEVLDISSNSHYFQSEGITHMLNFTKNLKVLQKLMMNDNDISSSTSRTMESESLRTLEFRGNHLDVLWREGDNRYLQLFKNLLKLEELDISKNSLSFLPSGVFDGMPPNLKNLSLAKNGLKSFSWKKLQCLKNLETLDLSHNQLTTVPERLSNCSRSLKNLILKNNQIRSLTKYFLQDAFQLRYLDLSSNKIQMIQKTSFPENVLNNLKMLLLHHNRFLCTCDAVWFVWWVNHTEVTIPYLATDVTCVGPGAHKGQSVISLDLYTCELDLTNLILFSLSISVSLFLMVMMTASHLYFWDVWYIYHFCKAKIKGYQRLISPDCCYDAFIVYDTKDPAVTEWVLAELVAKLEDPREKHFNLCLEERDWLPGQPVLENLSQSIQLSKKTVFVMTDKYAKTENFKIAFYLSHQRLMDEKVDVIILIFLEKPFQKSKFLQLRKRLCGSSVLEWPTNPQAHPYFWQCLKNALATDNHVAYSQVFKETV
Nature of the test: HEK-Blue hTLR7 reporter cell assay (SEAP, NF-kB/AP-1) for stimulation of human TLR7. The settings on record: HEK-Blue hTLR7 cells, 24 h incubation, SEAP readout; read-out: TLR7_EC50. In outline: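 HEK293 cells expressing hTLR7 with NF-κB/AP-1-driven SEAP reporter, seeded 3.10E4 cells/well, pre-incubated 18–24 h, then exposed to 3-fold compound dilutions (0.01–20 μM) for 24 h at 37 °C. Supernatant SEAP read with QUANTI-Blue; EC50 as concentration giving 50% activation.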

`CCCCc1nc2c(N)nnc(C(C)C)c2n1Cc1ccc(OC)cc1` [Compound 18, 2-butyl-7-isopropyl-1-(4-methoxybenzyl)-1H-imidazo[4,5-d]pyridazin-4-amine]: the EC50 in test [1] (Homo sapiens, PBMC, 24 h) came to 109 nM; in test [2] (Homo sapiens, PBMC, 24 h) it was 548 nM; in test [3] it was 355 nM.

For the molecule `CCCCc1nc2c(N)nnc(N3CCC(c4ccccc4)C3)c2n1C` (stereo not drawn) [Compound 89, 2-butyl-1-methyl-7-(3-phenylpyrrolidin-1-yl)-1H-imidazo[4,5-d]pyridazin-4-amine], the EC50 in test [1] (Homo sapiens, PBMC, 24 h) turned out to be 214 nM; in test [2] (Homo sapiens, PBMC, 24 h), 466 nM; in test [3], 1200 nM.

For the molecule `C=C(C)c1nnc(N)c2nc(CCCC)n(Cc3ccc(OC)cc3)c12` [Compound 17, 2-butyl-1-(4-methoxybenzyl)-7-(prop-1-en-2-yl)-1H-imidazo[4,5-d]pyridazin-4-amine], the EC50 in test [1] (Homo sapiens, PBMC, 24 h) amounted to 29 nM; in test [2] (Homo sapiens, PBMC, 24 h), 186 nM; in test [3] it was 155 nM.

On to `CCCCc1nc2c(N)nnc(OC(C)C)c2n1C[C@H]1CCC[C@@H](N)C1` (racemic) [Compound 23, 1-(((1S,3R)-3-aminocyclohexyl)methyl)-2-butyl-7-isopropoxy-1H-imidazo[4,5-d]pyridazin-4-amine (and enantiomer)], for which the EC50 in test [1] (Homo sapiens, PBMC, 24 h) was 3 nM; in test [2] (Homo sapiens, PBMC, 24 h), 204 nM; in test [3] it was 172 nM.

With `CCCCc1nc2c(N)nnc(SC(C)C)c2n1Cc1ccc(OC)cc1` [Compound 3, 2-butyl-7-(isopropylthio)-1-(4-methoxybenzyl)-1H-imidazo[4,5-d]pyridazin-4-amine], the EC50 in test [1] (Homo sapiens, PBMC, 24 h) was found to be 83 nM; in test [2] (Homo sapiens, PBMC, 24 h), 1410 nM; in test [3] it was 566 nM.

Take `CCCCc1nc2c(N)nnc(OC(C)C)c2n1Cc1ccc(CO)cc1` [Compound 35, (4-((4-amino-2-butyl-7-isopropoxy-1H-imidazo[4,5-d]pyridazin-1-yl)methyl)phenyl)methanol]: the EC50 amounted to 15 nM in test [1] (Homo sapiens, PBMC, 24 h); 40 nM in test [2] (Homo sapiens, PBMC, 24 h); 106 nM in test [3].

As for `CCCCc1nc2c(N)nnc(OC3CCCC3)c2n1Cc1ccc(OC)cc1` [Compound 9, 2-butyl-7-(cyclopentyloxy)-1-(4-methoxybenzyl)-1H-imidazo[4,5-d]pyridazin-4-amine], the EC50 in test [1] (Homo sapiens, PBMC, 24 h) was 15 nM; in test [2] (Homo sapiens, PBMC, 24 h), 149 nM; in test [3], 135 nM.

For the molecule `C=CCOc1nnc(N)c2nc(CCCC)n(Cc3ccc(OC)cc3)c12` [Compound 6, 7-(allyloxy)-2-butyl-1-(4-methoxybenzyl)-1H-imidazo[4,5-d]pyridazin-4-amine], the EC50 was found to be 62 nM in test [1] (Homo sapiens, PBMC, 24 h); 331 nM in test [2] (Homo sapiens, PBMC, 24 h); 295 nM in test [3].

For `CCCCc1nc2c(N)nnc(N(C)C)c2n1Cc1ccc(OC)cc1` [Compound 71, 2-butyl-1-(4-methoxybenzyl)-N7,N7-dimethyl-1H-imidazo[4,5-d]pyridazine-4,7-diamine], the EC50 in test [1] (Homo sapiens, PBMC, 24 h) was found to be 57 nM; in test [2] (Homo sapiens, PBMC, 24 h), 571 nM; in test [3], 291 nM.

In the case of `CCCCc1nc2c(N)nnc(NCCOC)c2n1Cc1ccc(OC)cc1` [Compound 49, 2-butyl-1-(4-methoxybenzyl)-N7-(2-methoxyethyl)-1H-imidazo[4,5-d]pyridazine-4,7-diamine], the EC50 in test [1] (Homo sapiens, PBMC, 24 h) stood at 388 nM; in test [2] (Homo sapiens, PBMC, 24 h) it was 1730 nM; in test [3], 353 nM.

As for `CCCCc1nc2c(N)nnc(OC(C)C)c2n1Cc1ccc(C=O)cc1` [Compound 34, 4-((4-amino-2-butyl-7-isopropoxy-1H-imidazo[4,5-d]pyridazin-1-yl)methyl)benzaldehyde], the EC50 is 28 nM in test [1] (Homo sapiens, PBMC, 24 h); 75 nM in test [2] (Homo sapiens, PBMC, 24 h); 116 nM in test [3].

As for `CCCCc1nc2c(N)nnc(OCC)c2n1Cc1ccc(OC)cc1` [Compound 48, 2-butyl-7-ethoxy-1-(4-methoxybenzyl)-1H-imidazo[4,5-d]pyridazin-4-amine], the EC50 was determined as 99 nM in test [1] (Homo sapiens, PBMC, 24 h); 368 nM in test [2] (Homo sapiens, PBMC, 24 h); 160 nM in test [3].

With `CCCCc1nc2c(N)nnc(OC(C)C)c2n1Cc1cccc(CN)c1` [Compound 33, 1-(3-(aminomethyl)benzyl)-2-butyl-7-isopropoxy-1H-imidazo[4,5-d]pyridazin-4-amine 2,2,2-trifluoroacetate], the EC50 came out at 2 nM in test [1] (Homo sapiens, PBMC, 24 h); 52 nM in test [2] (Homo sapiens, PBMC, 24 h); 392 nM in test [3].

Take `CCCCc1nc2c(N)nnc(OC(C)C)c2n1Cc1ccc(CN)cc1` [Compound 22, 1-(4-(aminomethyl)benzyl)-2-butyl-7-isopropoxy-1H-imidazo[4,5-d]pyridazin-4-amine 2,2,2-trifluoroacetate]: the EC50 turned out to be 0.1 nM in test [1] (24 h, 2,2,2-trifluoroacetate); 165 nM in test [2] (24 h, 2,2,2-trifluoroacetate); 30 nM in test [3].

As for `CCCCc1nc2c(N)nnc(NC(C)C)c2n1Cc1ccc(OC)cc1` [Compound 2, 2-butyl-N7-isopropyl-1-(4-methoxybenzyl)-1H-imidazo[4,5-d]pyridazin-4,7-diamine], the EC50 was found to be 6 nM in test [1] (Homo sapiens, PBMC, 24 h); 99 nM in test [2] (Homo sapiens, PBMC, 24 h); 53 nM in test [3].

In the case of `CCCCc1nc2c(N)nnc(OCCOC)c2n1Cc1ccc(OC)cc1` [Compound 4, 2-butyl-1-(4-methoxybenzyl)-7-(2-methoxyethoxy)-1H-imidazo[4,5-d]pyridazin-4-amine], the EC50 in test [1] (Homo sapiens, PBMC, 24 h) stood at 795 nM; in test [2] (Homo sapiens, PBMC, 24 h), 1940 nM; in test [3] it was 1260 nM.

As to `CCCCc1nc2c(N)nnc(OC(C)C)c2n1Cc1ccccn1` [Compound 75, 2-butyl-7-isopropoxy-1-(pyridin-2-ylmethyl)-1H-imidazo[4,5-d]pyridazin-4-amine], the EC50 in test [1] (Homo sapiens, PBMC, 24 h) worked out at 34 nM; in test [2] (Homo sapiens, PBMC, 24 h) it was 181 nM; in test [3], 179 nM.

`CCCCc1nc2c(N)nnc(OC(C)C)c2n1Cc1ccc(OC)cc1` [Compound 1, 2-butyl-7-isopropoxy-1-(4-methoxybenzyl)-1H-imidazo[4,5-d]pyridazin-4-amine]: the EC50 in test [1] (Homo sapiens, PBMC, 24 h) is 173 nM; in test [2] (Homo sapiens, PBMC, 24 h) it was 457 nM; in test [3], 103 nM.

For `CCCCc1nc2c(N)nnc(-c3cc[nH]c3)c2n1Cc1ccc(OC)cc1` [Compound 14, 2-butyl-1-(4-methoxybenzyl)-7-(1H-pyrrol-3-yl)-1H-imidazo[4,5-d]pyridazin-4-amine], the EC50 in test [1] (Homo sapiens, PBMC, 24 h) is 20 nM; in test [2] (Homo sapiens, PBMC, 24 h), 106 nM; in test [3] it was 219 nM.

`CCCCc1nc2c(N)nnc(OC(C)C)c2n1Cc1ccc(CN)cc1` [Compound 21, 1-(4-(aminomethyl)benzyl)-2-butyl-7-isopropoxy-1H-imidazo[4,5-d]pyridazin-4-amine]: the results for the EC50 in test [1] (24 h), in test [2] (24 h) and in test [3] were 0.3 nM, 8 nM and 33 nM, respectively.

As for `CCCCc1nc2c(N)nnc(N3CCCC3)c2n1Cc1ccc(OC)cc1` [Compound 10, 2-butyl-1-(4-methoxybenzyl)-7-(pyrrolidin-1-yl)-1H-imidazo[4,5-d]pyridazin-4-amine], the EC50 in test [1] (Homo sapiens, PBMC, 24 h) was determined as 16 nM; in test [2] (Homo sapiens, PBMC, 24 h), 177 nM; in test [3] it was 120 nM.
